Reference: patent publication US5418232A, “Diazabicycloalkene derivatives” (Daiichi Pharmaceutical Co., Ltd., priority 1992, dated 1995)

Key:
[1] = system: spontaneously hypertensive rats; assay: Blood pressure fall after i.v. compound with or without glibenclamide pretreatment; format: in vivo, rat
Method: 2) Twenty-two-week-old male spontaneously hypertensive rats (body weight, 350-420 g) were given an intravenous injection of 30 mg/kg of glibenclamide (Sigma Chemical Company) having an antagonistic activity against potassium channel openers or, as a control, a solvent.

[2] = system: spontaneously hypertensive rats; assay: Effect on renal blood flow (Doppler probe); format: in vivo, rat; conditions: for Increase in Renal Blood Flow 1 Hr after Administration: oral, dose which reduced blood pressure by about 50 mmHg; for activity in increasing the renal blood flow vs reference drug (in words): vs EMD57283
Method: Twenty-week-old male spontaneously hypertensive rats (body weight: 350-430 g) were anesthetized with pentobarbital (30 mg/kg, i.p.). An incision was made in the abdomen on the left side, and a Doppler probe for blood flow measurement was fitted to the left renal artery, and the code (wire lead) of the probe was passed under the back skin and taken out from the back of the neck. After 1 week from the operation, the code of the probe was connected to a Doppler blood flow meter to start measurement of the renal blood flow. After the renal blood flow reached to a steady state, a test compound was orally administered, and changes in renal blood flow were observed up to 9 hours. The test compound was used at a dose which reduced blood pressure by about 50 mmHg.

Acute toxicity = format: in vivo; conditions: mouse, in vivo, po
male mice = assay: Acute toxicity; format: in vivo; conditions: oral 2 g/kg
[3] = system: spontaneously hypertensive rats; assay: Antihypertensive activity in spontaneously hypertensive rats (oral, tail-cuff); format: in vivo, rat
Method: Male spontaneously hypertensive rats (16 to 20-week-old; body weight: 300-400 g) fed ab lib. were forceably given oral administration of a test compound suspended in 0.5% (w/v) carboxymethyl cellulose aqueous solution. After 1, 2, 4, 6, 8, 24, 30 or 48 hours from the administration, the systolic blood pressure was measured by a tail-cuff method described in Arzneimittel-Forschung, Vol. 18, pp. 1285-1287 (1968)).
The antihypertensive activity of the test compound was obtained as an effective dose for reducing blood pressure by 50 mmHg (ED50mmHg). Further, the time of onset of the maximum activity and the maximum increase in heart rate at a dose for reducing blood pressure by 50 to 60 mmHg were measured.
The statistical difference between a test compound and EMD57283 was analyzed by the Student's t-test.

[4] = dose reducing blood pressure by 50 to 60 mmHg

SMILES	Average Blood Pressure Fall ([1]; 1 Hr., 0.1 mg/kg i.v. + Glibenclamide 30 mg/kg i.v.) [mmHg]	Average Blood Pressure Fall ([1]; 1 Hr., 0.1 mg/kg i.v. + solvent) [mmHg]	Average Blood Pressure Fall ([1]; 2 Hrs., 0.1 mg/kg i.v. + Glibenclamide 30 mg/kg i.v.) [mmHg]	Average Blood Pressure Fall ([1]; 2 Hrs., 0.1 mg/kg i.v. + solvent) [mmHg]	Average Blood Pressure Fall ([1]; 3 Hrs., 0.1 mg/kg i.v. + Glibenclamide 30 mg/kg i.v.) [mmHg]	Average Blood Pressure Fall ([1]; 3 Hrs., 0.1 mg/kg i.v. + solvent) [mmHg]	Average Blood Pressure Fall ([1]; 4 Hrs., 0.1 mg/kg i.v. + Glibenclamide 30 mg/kg i.v.) [mmHg]	Average Blood Pressure Fall ([1]; 4 Hrs., 0.1 mg/kg i.v. + solvent) [mmHg]	potassium channel opening activity (in words) ([1]; conclusion from Table 6, glibenclamide antagonism)	Increase in Renal Blood Flow 1 Hr after Administration [2] [%]	activity in increasing the renal blood flow vs reference drug (in words) [2]	LD50 at 336 h (Acute toxicity) [mg/kg]	safety (in words) (male mice)	antihypertensive activity (in words) [3]	duration of activity (in words) [3]	ED (50 mmHg) ([3]; Rattus norvegicus, systolic blood pressure, read-out: ED50mmHg (effective dose for reducing blood pressure by 50 mmHg)) [mg/kg]	Max. increase of Heat Rate [3, 4] [%]	Time for Onset of Max. Activity [3, 4] [h]
CC1(C)Oc2ccc(C#N)cc2[C@@H](OC2=NN(Cc3ccccc3)C(=O)C3CC23)[C@@H]1O (relative stereo) [Example 1, 3,4-trans-4-(3-Benzyl-2-oxo-3,4-diazabicyclo[4.1.0]hept-4-en-5-yloxy)-3,4-dihydro-2,2-dimethyl-3-hydroxy-2H-1-benzopyran-6-carbonitrile]	15.9 ± 3.7	41.4 ± 6.1	22.0 ± 5.7	50.4 ± 4.4	28.0 ± 5.3	55.9 ± 4.3	26.9 ± 5.7	55.1 ± 4.7	possesses potassium channel opening activity	34.0 ± 6.1	more potent activity in increasing the renal blood flow than the reference drug	> 2000	highly safe					
CN1N=C(O[C@@H]2c3cc(C#N)ccc3OC(C)(C)[C@H]2O)C2CC2C1=O (relative stereo) [Example 2, 3,4-trans-3,4-dihydro-2,2-dimethyl-3-hydroxy-4-(3-methyl-2-oxo-3,4-diazabicyclo[4.1.0]hept-4-en-5-yloxy)-2H-1-benzopyran-6-carbonitrile]												> 2000	highly safe					
CC1(C)Oc2ccc(C#N)cc2[C@@H](OC2=NN(Cc3ccccc3Cl)C(=O)C3CC23)[C@@H]1O (relative stereo) [Example 33, (3S,4R,1'R*,6'S*)-4-(3-(2-chlorobenzyl)-2-oxo-3,4-diazabicyclo[4.1.0]hept-4-en-5-yloxy)-3,4-dihydro-2,2-dimethyl-3-hydroxy-2H-1-benzopyran-6-carbonitrile]										14.5 ± 4.0	more potent activity in increasing the renal blood flow than the reference drug	> 2000	highly safe	potent antihypertensive activity	long duration of activity	0.031	19.4 ± 3.1	6.6 ± 0.5
